“And” between values parts separate entries of the source, which are not always exact repeats. Identical values can stand only once. “Also recorded” adds a separate entry of the source.
Assays:
Gli-1 and Ptch mRNA = assay: Q-RT-PCR of hedgehog pathway genes in M2 cells; type: cell-based, mouse; conditions: for Inhibition of oxysterol-induced Gli-1 and Ptch mRNA expression: M2 cells, SS 24 hours, pretreatment or co-treatment with agent
Protocol: Q-RT-PCR was performed using reverse-transcribed RNA isolated from M2 cells using phenol/chloroform method. PCR reactions were performed using iQ SYBR Green Supermix and an iCycler RT-PCR Detection System (BIO-RAD Laboratories, Hercules, Calif.). Primer sequences for Gli-1, Gli-2, Gli-3, Shh and Ihh were kindly provided by Dr. Fanxin Long (Washington University, St. Louis, Mo.). Ptch and Smo primer sequences are available upon request. Q-RT-PCR data were normalized to cyclophilin expression and relative expression levels were calculated using the […] method (Livak et al. (2001) Methods 25, 402-408).

[1] = test system: M2-10B4 marrow stromal cells; assay: 45Ca incorporation (mineralization) assay in M2-10B4 marrow stromal cells; type: cell-based, mouse
Protocol: (§1) The cells used are the pluripotent M2 cells (M2-10B4) that we previously characterized for their ability to become osteoblastiic and adipocyte cells. […] These cells are derived from bone marrow, are easy to maintain and last for many passages in vitro. […] Among the markers of osteogenic differentiation that were assayed were alkaline phosphatase activity, osteocalcin mRNA expression and mineral formation in cultures of marrow stromal cells.
We tested the effect of oxysterols on mineralization in M2-10B4 marrow stromal cells. Cells were treated with the oxysterols for 14 days after which the amount of mineral formed in the cultures was quantified using a radioactive ^45Ca incorporation assay.

[2] = test system: M2-10B4 marrow stromal cells; assay: Alkaline phosphatase activity assay in M2-10B4 marrow stromal cells; type: cell-based, mouse
Protocol: as §1
We tested the effect of the synthetic oxysterols, oxy-1 through oxy-15, on alkaline phosphatase activity in M2-10B4 marrow stromal cells. Cells were treated with the oxysterols for 4 days after which they were collected and analyzed by colorimetric assay for alkaline phosphatase activity.

rat femur periosteum = assay: Rat periosteal femur model, bone formation scoring; type: in vivo; set-up: key to Bone formation Score, individual animal / Bone formation Score (radiograph scoring), individual animal: 4: Marked amount and contiguous on eriosteum; 3: Moderate amount and contiguous on eriosteum; 2: Small amount and contiguous on periosteum; 1: Small amount and small segments on periosteum; 0: None; conditions: for Bone formation score, Average / Bone formation score (radiograph scoring), Average: n=6
Protocol: Male SD rats were treated for two weeks with Oxy13 (or a control vehicle). The Oxy13 was delivered by an Alzet pump to the perioseum, in three doses or by daily injections. The treatment regimens were: two weeks treatment, n=6 per group, vehicle and three Oxy 13 doses continuous and two doses daily injection; and four weeks treatment, vehicle and two Oxy 13 doses, n=6/group. The bone in-growth endpoints that were evaluated were microradiography, histomorphometry and blinded, randomized visual scoring.

[3] = test system: Gli-dependent luciferase reporter; assay: Gli-dependent luciferase reporter (Gli-Luc) assay in M2 cells; type: cell-based, mouse; conditions: for Gli reporter activity (synthetic oxysterols, FIG. 10): M2-10B4 Marrow Stromal Cells; for Induction of Gli reporter activity: ShhN 200 ng/ml, oxysterols 5 μM, TO 1 or 5 μM, 48 hours
Protocol: (§2) Cells were plated into 24-well plates and transfected the next day with Gli-dependent firefly luciferase and Renilla luciferase vectors and where indicated, Smo or Ptch expression vectors. […] Cells were treated for 48 hours prior to assessing luciferase activity using the Dual Luciferase Reporter Assay System (Promega, Madison, Wis.) according to manufacturer's instructions. Experiments were performed in triplicate and error bars indicate one standard deviation.
To further examine Hh pathway activation by oxysterols, a reporter assay using a luciferase reporter driven by a multimerized Gli-responsive element (5′-[…]-3′) (SEQ ID NO:4) was used.

pMARCKS, pPKA, pCREB = assay: Western blotting of phosphorylated proteins in M2 cell lysates; type: cell-based, mouse; conditions: SS 5 μM 10 min to 48 hours; PMA 30 min
Protocol: After treatments, cells were lysed in lysis buffer, protein concentrations determined using the Bio-Rad protein assay (Hercules, Calif.), and SDS-PAGE was performed, probing for native and phosphorylated proteins.
We previously reported that oxysterol-induced osteoblastic differentiation of cells is mediated via protein kinase C (PKC)- and protein kinase A (PKA)-dependent mechanisms. The role of these signaling pathways in regulating the different markers of osteoblastic differentiation appears to be both specific and overlapping. To begin elucidating the possible role of PKC and PKA in mediating oxysterol-induced Hh pathway activation, we examined the effect of PKC and PKA inhibitors on markers of Hh pathway activation. […] Similarly, oxysterol-induced Gli-1 and Ptch expression was inhibited in cells whose PKC stores were depleted following overnight pretreatment with 1 μM PMA (FIG. 6c,d). We next examined whether oxysterols induced PKC activation by assessing the levels of phosphorylated MARCKS (pMARCKS), a PKC substrate, by Western blotting.
To examine the possible role of PKA in oxysterol-induced Hh pathway activation, the effect of PKA inhibitor, H-89, previously found to inhibit the induction of some, but not all, markers of osteoblastic differentiation, on oxysterol-induced Gli-1 and Ptch mRNA expression was assessed by Q-RT-PCR.

osteocalcin (OCN) mRNA = conditions: 4 μM pre-treatment, 5 μM SS 8 days
Protocol: (§3) Colorimetric alkaline phosphatase activity assay on whole cell extracts and Northern blotting for OCN and 18S rRNA were performed by conventional procedures. Gene expression was quantified using a Storm840 phosphorimager and ImageQuant software (Amersham, Piscataway, N.J.).

[4] = test system: Gli-dependent luciferase reporter; conditions: 4 μM pre-treatment
Protocol: as §2

[5] = test system: Runx2 DNA binding activity
Protocol: Oligonucleotides were annealed to their complementary sequences by boiling and cooling. The probes were end-labeled with γ^32P-ATP using polynucleotide kinase and column purified. […] Nuclear extracts (10 μg) were incubated in binding buffer (10 mM Tris pH 7.5, 100 mM NaCl, 1 mM DTT, 1 mM EDTA, 4% glycerol), 1 μg poly(dIdC) and 0.2 ng of labeled probe for 20 minutes at room temperature, and complexes were resolved on a cooled, 6% acrylamide 1×TBE gel. Subsequently, gels were dried and exposed to film.

Smo−/− MEFs = assay: Alkaline phosphatase assay in Smo-/- mouse embryonic fibroblasts; type: cell-based; conditions: two days; BMP-7 50 ng/ml
Protocol: as §3

[6] = Mus musculus, M210B4, 336 h, read-out: 45Ca Incorporation (fold induction over control untreated cells)
[7] = Mus musculus, M210B4, 96 h, read-out: Fold Induction over Control Untreated Cells (alkaline phosphatase activity)

Molecule: CC(=O)c1c(O)c(C)c(O)c(Cc2c(O)c3c(c(C(=O)/C=C/c4ccccc4)c2O)OC(C)(C)C=C3)c1O [rottlerin]
- Inhibition of oxysterol-induced Gli-1 and Ptch mRNA expression (Gli-1 and Ptch mRNA): dose-dependently inhibited
- Effect of agent alone on Gli-1 and Ptch gene expression (Gli-1 and Ptch mRNA; all concentrations tested, without SS): no significant effect on gene expression

Molecule: CC(C)CCC[C@](C)(O)[C@H]1CC[C@H]2[C@@H]3CC=C4C[C@@H](O)CC[C@]4(C)[C@H]3CC[C@@]21C [Oxy 20S, 20(S)-hydroxycholesterol, reference compound]
- fold induction at 7.5 µM [1, 6]: 4

Molecule: C=C(C)CCC[C@](C)(O)[C@H]1CC[C@H]2[C@@H]3CC=C4C[C@@H](O)CC[C@]4(C)[C@H]3CC[C@@]21C [Oxy13, (3S,8S,9S,10R,13S,14S,17S)-2,3,4,7,8,9,10,11,12,13,14,15,16,17-tetradecahydro-17-((S)-2-hydroxy-6-methylhept-6-en-2-yl)-10,13-dimethyl-1H-cyclopenta[a]phenanthren-3-ol]
- fold induction at 2.5 µM [2, 7]: 200
- fold induction at 5 µM [2, 7]: 334
- fold induction at 5 µM [1, 6]: 5
- fold induction at 10 µM [1, 6]: 34
- fold induction at 15 µM [1, 6]: 38
- Bone formation Score, individual animal (rat femur periosteum; Pump 2 wk 0.167 mg/ml): 3
- Bone formation score, Average (rat femur periosteum; Pump 2 wk 0.167 mg/ml): 3.00
- Bone formation Score, individual animal (rat femur periosteum; Pump 2 wk 1.67 mg/ml): 1 and 4 (3×) and 3 and 2
- Bone formation score, Average (rat femur periosteum; Pump 2 wk 1.67 mg/ml): 3.00
- Bone formation Score (radiograph scoring), individual animal (rat femur periosteum; Pump 4 wk 0.167 mg/ml): 0 and 2 (3×) and 3 (2×)
- Bone formation score (radiograph scoring), Average (rat femur periosteum; Pump 4 wk 0.167 mg/ml): 2.00
- Bone formation Score (radiograph scoring), individual animal (rat femur periosteum; Pump 4 wk 1.67 mg/ml): 2 (2×) and 3 and 1 (2×) and 0
- Bone formation score (radiograph scoring), Average (rat femur periosteum; Pump 4 wk 1.67 mg/ml): 1.50
- Gli reporter activity (synthetic oxysterols, FIG. 10) [3]: stimulate the Gli1 reporter; also recorded: stimulation of Gli reporter activity

Molecule: O=S(=O)(c1ccccc1)N(CC(F)(F)F)c1ccc(C(O)(C(F)(F)F)C(F)(F)F)cc1 [TO-901317, reference compound]
- Induction of Gli reporter activity [3]: no activation

Molecule: Cc1cccc(C[C@](C)(O)C2CCC3C4CC=C5C[C@@H](O)CC[C@]5(C)C4CC[C@@]32C)c1 (some centres unmarked) [Oxy11]
- Fold Induction over Control Untreated Cells (alkaline phosphatase activity) ([2]; 2.5 μM, 4 days): 6 fold
- Gli reporter activity (synthetic oxysterols, FIG. 10) [3]: stimulate the Gli1 reporter; also recorded: stimulation of Gli reporter activity

Molecule: CC(C)CCC[C@@H](C)[C@H]1CC[C@H]2[C@@H]3C(=O)C=C4C[C@@H](O)CC[C@]4(C)[C@H]3CC[C@]12C [7-ketocholesterol, reference compound]
- Induction of Gli reporter activity [3]: not observed

Molecule: CC(C)CCC[C@@H](C)[C@H]1CC[C@H]2[C@@H]3[C@H](O)C=C4C[C@@H](O)CC[C@]4(C)[C@H]3CC[C@]12C [7-α-hydroxycholesterol, reference compound]
- Induction of Gli reporter activity [3]: not observed

Molecule: CCCCCCCCCCCCCC(=O)O[C@@H]1[C@@H](C)[C@@]2(O)[C@@H](C=C(CO)C[C@]3(O)C(=O)C(C)=C[C@@H]23)[C@@H]2C(C)(C)[C@]12OC(C)=O [PMA, Phorbol 12-Myristate 13-Acetate]
- Inhibition of oxysterol-induced Gli-1 and Ptch mRNA expression (Gli-1 and Ptch mRNA): inhibited
- Phosphorylated MARCKS (pMARCKS) levels (pMARCKS, pPKA, pCREB): clearly induced MARCKS phosphorylation

Molecule: CC1=C2C[C@H]3[C@@H](CC=C4C[C@@H](O)CC[C@@]43C)[C@@H]2CC[C@]12O[C@@H]1C[C@H](C)CN[C@H]1[C@H]2C [cyclopamine, reference compound]
- Inhibition of SS-induced ALP activity ([2]; M2 cells, 5 μM SS, 3 days): significantly inhibited
- Inhibition of oxysterol-increased mineralization ([1]; 4 μM pre-treatment, 5 μM SS 14 days): inhibited
- Inhibition of oxysterol- or ShhN-induced Gli-luc activity ([3]; pre-treatment 2 hours, 4 μM): inhibited
- Inhibition of oxysterol-induced OCN expression (osteocalcin (OCN) mRNA): inhibited
- Inhibition of oxysterol-induced Gli-luc activity in C3H10T½ cells [4]: inhibited
- Inhibition of oxysterol-stimulated Runx2 DNA binding activity [5]: completely inhibited

Molecule: O=S(=O)(NCCNC/C=C/c1ccc(Br)cc1)c1cccc2cnccc12 [Oxy H-89, H-89]
- Inhibition of oxysterol-induced Gli-1 and Ptch mRNA expression (Gli-1 and Ptch mRNA): did not inhibit

Molecule: CC(C)CCCC[C@](C)(O)[C@H]1CC[C@H]2[C@@H]3CC=C4C[C@@H](O)CC[C@]4(C)[C@H]3CC[C@@]21C [Oxy12, (3S,8S,9S,10R,13S,14S,17S)-2,3,4,7,8,9,10,11,12,13,14,15,16,17-tetradecahydro-17-((S)-2-hydroxy-7-methyloctan-2-yl)-10,13-dimethyl-1H-cyclopenta[a]phenanthren-3-ol]
- fold induction at 5 µM [2, 7]: 22
- fold induction at 10 µM [2, 7]: 80
- fold induction at 5 µM [1, 6]: 2
- fold induction at 10 µM [1, 6]: 4
- fold induction at 15 µM [1, 6]: 7
- Gli reporter activity (synthetic oxysterols, FIG. 10) [3]: stimulate the Gli1 reporter; also recorded: stimulation of Gli reporter activity

B1: BMB-7: bone morphogenetic protein 7 (protein, UniProt P18075 293-431, looked up)
Bone morphogenetic protein 7: STGSKQRSQNRSKTPKNQEALRMANVAENSSSDQRQACKKHELYVSFRDLGWQDWIIAPEGYAAYYCEGECAFPLNSYMNATNHAIVQTLVHFINPETVPKPCCAPTQLNAISVLYFDDSSNVILKKYRNMVVRACGCH
- ALP activity / osteoblastic differentiation in Smo−/− MEFs (Smo−/− MEFs): did induce ALP activity

From patent US9670244B2, “Oxysterol compounds and the hedgehog pathway” (THE REGENTS OF THE UNIVERSITY OF CALIFORNIA, priority 2006, dated 2017)
